Reference: patent US11414385B2, “Compounds and methods for treating, detecting, and identifying compounds to treat apicomplexan parasitic diseases” (The University of Chicago, priority 2015, dated 2022)

Columns and labels:
[1] = system: T. gondii bradyzoites (EGS strain); test: EGS strain bradyzoite assay (cysts in HFF, dolichos/BAG1 staining); format: cell-based, Toxoplasma gondii; details: 5 and 10 μM, in HFF
Method: (§1) HFF cells were grown in IMDM (1×, [+] glutamine, [+] 25 mM HEPES, [+] Phenol red, 10% FBS, [Gibco, Denmark]) on removable, sterile glass disks in the bottom of a clear, flat-bottomed 24-well plate. Cultures were infected with 3×10^4 parasites (EGS strain) per well, in 0.5 mL media and plate was returned to incubator at 37° C. overnight. The following day, the media was removed and clear IMDM and compounds were added to making various concentrations of the drug, to a total volume of 0.5 mL. Two wells were filled with media only, as a control. Plates were returned to the 37° C. incubator for 72 hours.
Efficacy was determined following fixation. Staining was used to determine the numbers of cysts in cultures without and with treatment with the test compounds. Cells were fixed using 4% paraformaldehyde and stained with Fluorescein-labeled Dolichos Biflorus Agglutinin, DAPI, and anti-BAG1, and anti-SAG1. Disks were removed and mounted onto glass slides and visualized using microscopy (Nikon Tl7). Slides were also scanned using a CRi Pannoramic Scan Whole Slide Scanner and viewed using Panoramic Viewer Software.
as §1, with “[gibco,” for “[Gibco,”, “2” for “Two”, “72 hours, and checked once every 24” for “72”, “hours. If tachyzoites were visible in the control before 72 hours, the cells were fixed and stained.” for “hours.”
Cells were fixed using 4% paraformaldehyde and stained with Fluorescein-labeled Dolichos Biflorus Agglutinin, DAPI, and BAG1. Disks were removed and mounted onto glass slides and visualized using microscopy (Nikon Tl7). Slides were scanned using a CRi Pannoramic Scan Whole Slide Scanner and viewed using Panoramic Viewer Software. Effects of the compounds were quantified by counting cysts in the controls and treated cells. Cysts and persisting organisms were counted in a representative field of view and then multiplied by a factor determined by the total area of the disk in order to estimate the number of cysts and organisms in each condition.
HFF cells were grown in IMDM (1×, [+] glutamine, [+] 25 mM HEPES, [+] Phenol red, 10% FBS, [gibco, Denmark]) on removable, sterile glass disks in the bottom of a clear, flat-bottomed 24-well plate. Cultures were infected with 3×10^4 parasites (EGS strain) per well, in 0.5 mL media and plate was returned to incubator at 37° C. overnight. The following day, the media was removed and clear IMDM and compounds were added to making various concentrations of the drug, to a total volume of 0.5 mL. 2 wells were filled with media only, as a control. Plates were returned to the 37° C. incubator for 72 hours, and checked once every 24 hours. If tachyzoites were visible in the control before 72 hours, the cells were fixed and stained. Cells were fixed using 4% paraformaldehyde and stained with Fluorescein-labeled Dolichos Biflorus Agglutinin, DAPI, and BAG1. Disks were removed and mounted onto glass slides and visualized using microscopy (Nikon Tl7). Slides were scanned using a CRi Pannoramic Scan Whole Slide Scanner and viewed using Panoramic Viewer Software. Effects of the compounds were quantified by counting cysts in the controls and treated cells. Cysts and persisting organisms were counted in a representative field of view and then multiplied by a factor determined by the total area of the disk in order to estimate the number of cysts and organisms in each condition. Data was collected using Gen5 software. IC50 was calculated by graphical analysis in Excel.

[2] = system: T. gondii tachyzoites (RH-YFP strain); test: In vitro challenge assay for Toxoplasma tachyzoites (RH-YFP in HFF, fluorescence); format: cell-based, Toxoplasma gondii
Method: Human foreskin fibroblasts (HFF) were cultured on a flat, clear-bottomed, black 96-well plate to 90% to 100% confluence. IMDM (1×, [+] glutamine, [+] 25 mM HEPES, [+] Phenol red, 10% FBS [gibco, Denmark]) was removed from each well and replaced with IMDM-C (1×, [+] glutamine, [+] 25 mM HEPES, [−] Phenol red, 10% FBS)[Gibco, Denmark]). Type I RH parasites expressing Yellow Fluorescent Protein (RH-YFP) were lysed from host cells by double passage through a 27-gauge needle. Parasites were counted and diluted to 32,000/mL in IMDM-C. Fibroblast cultures were infected with 3200 tachyzoites of the Type I RH-YFP strain and returned to incubator at 37° C. for 1-2 hours to allow for infection. Diluted solutions of the compounds were made using IMDM-C, and 20 μl were added to each designated well, with triplicates for each condition. Controls included pyrimethamine/sulfadiazine (current standard of treatment), DMSO only, fibroblast only, and an untreated YFP gradient with 2 fold dilutions of the parasite. Cells were incubated at 37° C. for 72 hours. The plates were read using a fluorimeter (Synergy H4 Hybrid Reader, BioTek) To ascertain the amount of yellow fluorescent protein, in relative fluorescence units (RFU), as a measure of parasite burden after treatment. Compounds were not considered effective or pursued for further analysis if there were no signs of inhibition at 1 μM. Data was collected using Gen5 software and analyzed with Excel.
Protocol adapted from Fomovska, et. al. (18,19). Human foreskin fibroblasts (HFF) were cultured on a flat, clear-bottomed, black 96-well plate to 90% to 100% confluence. IMDM (1×, [+] glutamine, [+] 25 mM HEPES, [+] Phenol red, 10% FBS [gibco, Denmark]) was removed from each well and replaced with IMDM-C (1×, [+] glutamine, [+] 25 mM HEPES, [−] Phenol red, 10% FBS)[gibco, Denmark]). Type I RH parasites expressing Yellow Fluorescent Protein (RH-YFP) were lysed from host cells by double passage through a 27-gauge needle. Parasites were counted and diluted to 32,000/mL in IMDM-C. Fibroblast cultures were infected with 3200 tachyzoites of the Type I RH strain expressing Yellow Fluorescent Protein (RH-YFP) and returned to incubator at 37° C. for 1-2 hours to allow for infection (15). Various concentrations of the compounds were made using IMDM-C, and 20 μl were added to each designated well, with triplicates for each condition. Controls included pyrimethamine/sulfadiazine (current standard of treatment), 0.1% DMSO only, fibroblast only, and an untreated YFP gradient with 2 fold dilutions of the parasite. Cells were incubated at 37° C. for 72 hours. Plates were read using a fluorimeter (Synergy H4 Hybrid Reader, BioTek) to ascertain the amount of yellow fluorescent protein, in relative fluorescence units (RFU), as a measure of parasite burden after treatment. Data was collected using Gen5 software. IC50 was calculated by graphical analysis in Excel.
An initial screening assay of 10 μM, 1 μM, 100 nM, and 10 nM was performed. Compounds were not considered effective or pursued for further analysis if there were no signs of inhibition of tachyzoites at 1 μM. If compounds did appear to be effective at 1 μM, another experiment was conducted to assess effect at 1 μM, 500 nM, 250 nM, 125 nM, 62.5 nM, and 31.25 nM.
Protocol adapted from Fomovska, et. al. (Fomovska A, Huang Q, El Bissati K, Mui E J, Witola W H, Cheng G, et al. Novel N-Benzoyl-2-Hydroxybenzamide Disrupts Unique Parasite Secretory Pathway. Antimicrob Agents Chemother [Internet]. 2012 May [cited 2015 Jul. 8]; 56(5):2666-82; Fomovska A, Wood R D, Mui E, Dubey J P, Ferreira L R, Hickman M R, et al. Salicylanilide inhibitors of Toxoplasma gondii. J Med Chem. 2012 Oct. 11; 55(19):8375-91.). Human foreskin fibroblasts (HFF) were cultured on a flat, clear-bottomed, black 96-well plate to 90% to 100% confluence. […]

[3] = biological target: T1, Plasmodium falciparum bc1 complex cytochrome c reductase (Pfbc1) (Plasmodium falciparum, UniProt Q02768); test: Pfbc1 native assay (cytochrome c reduction by parasite extract); format: biochemical; details: compound 1 μM; mean ± s.e.m. of 4 independent experiments
T1 construct: Parasite extract was then prepared by disruption with a sonicating probe; endogenous in cells; host or cells: P. falciparum 3D7 blood-stage parasites, saponin-freed and sonicated (crude parasite extract)
T1 sequence (Q02768 1-376): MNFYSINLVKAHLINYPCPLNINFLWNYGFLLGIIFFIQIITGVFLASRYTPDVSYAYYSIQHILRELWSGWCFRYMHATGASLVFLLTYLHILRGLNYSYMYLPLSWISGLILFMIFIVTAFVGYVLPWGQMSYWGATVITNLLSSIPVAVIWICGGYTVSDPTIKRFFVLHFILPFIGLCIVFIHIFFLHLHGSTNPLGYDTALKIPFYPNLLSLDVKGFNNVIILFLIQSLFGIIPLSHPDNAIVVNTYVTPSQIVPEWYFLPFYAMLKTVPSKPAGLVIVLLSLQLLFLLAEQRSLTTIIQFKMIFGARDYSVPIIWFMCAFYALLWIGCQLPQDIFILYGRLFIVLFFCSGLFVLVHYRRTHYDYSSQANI
Method: Plasmodium falciparum: 3D7 strain was obtained from the Liverpool School of Tropical Medicine. Protease cocktail inhibitor was obtained from Roche. Bradford protein assay dye reagent was obtained from Bio-Rad. All other reagents were obtained from Sigma-Aldrich. Decylubiquinol was produced as per Fisher et al. (Fisher et al. 2004)^21. In brief, 25 mg of decylubiquinone were dissolved in 400 μl of nitrogen-saturated hexane. An equal volume of aqueous 1 M sodium dithionite was added, and the mixture vortexed until colorless. The organic phase containing the decylubiquinol was collected, the solvent was evaporated under N2 and the decylubiquinol finally dissolved in 100 μl of 96% ethanol (acidified with 10 mM HCl). Concentrations of decylubiquinol was determined spectrophotometrically on a Cary 300 Bio UV/visible spectrophotometer (Varian, UK) from absolute spectra, using ε288-320=8.1 mM-1·cm^−1. Decylubiquinol was stored at −80° C. and used within two weeks.
The protocol for the preparation of parasite extract was adapted from Fisher et al. (Fisher et al. 2009)^22. Free parasites were prepared from infected erythrocytes pooled from five T75 flasks, by adding 5 volumes of 0.15% (w/v) saponin in phosphate-buffered saline (137 mM NaCl, 2.7 mM KCl, 1.76 mM K2HPO4, 8.0 mM Na2HPO4, 5.5 mM D-glucose, pH 7.4) for 5 min, followed by three washes by centrifugation in RPMI containing HEPES (25 mM), and a final resuspension in potassium phosphate buffer (50 mM K2HPO4, 50 mM KH2PO4, 2 mM EDTA, pH7.4) containing a protease inhibitor cocktail (Complete Mini; Roche). Parasite extract was then prepared by disruption with a sonicating probe for 5 s, followed by a 1 min rest period on ice to prevent the sample overheating. […] The protein concentration of the parasite extract was determined by Bradford protein assay (Bio-Rad).
Plasmodium falciparum bc1 complex cytochrome c reductase (Pfbc1) activity was measured by monitoring cytochrome c reduction at 550 versus 542 nm using a Cary 300 Bio UV-Visible Spectrophotometer (Varian, UK), using a protocol adapted from Fisher et al. (Fisher et al. 2009)^21-23. […]

Molecule	effect on size and number of EGS cysts [1]	effect on tachyzoite replication ([2]; 5 and 10 μM, vs off target control)	Inhibition of cytochrome c reduction (% atovaquone response) [3] [% atovaquone response]	IC50 ([2]; Toxoplasma gondii, RH-YFP, read-out: Tachy IC50) [nM]
Vivoporter-PMOs: "Vivo-PMO (Vivo porter linked to morpholinos) to knock down cytochrome b"; sequence 5′ AGTGTTCTCGAAACCATGCTAACAC 3′ (SEQ ID NO: 5) (all phosphorodiamidate morpholino (PMO); Vivo-Porter delivery moiety attached to morpholino, further chemistry not fully specified; listed as Homo sapiens) [reference compound]	small effect	modest effect		
O=c1c2c([nH]c(CO)c1-c1ccc(Oc3ccc(OC(F)(F)F)cc3)cc1)CCCC2 [JAG099, 3(4-(4-Trifluoromethoxyphenoxy)phenyl)-2-(methylhydroxy)-5,6,7,8-tetrahydroquinolin-4(1H)-one]			81.3 ± 6.0	320
